# “Also recorded” adds a separate entry of the source.
# Legend:
# [1] = system: deep cervical lymph nodes (DCLN) and splenocytes; test: Flow cytometry of deep cervical lymph nodes and splenocytes (high cohort); format: in vivo, rat; details: 8-week endpoint
# [2] = system: IBA1, CD68, CD163, MHCII in substantia nigra; test: Immunohistochemistry/immunofluorescence of immune cell markers in substantia nigra; format: in vivo; details: rat low cohort, 6 mg/kg i.p. daily 7 weeks, vs vehicle
# Experimental: Brains were post-fixed in 4%PFA for 48 h and transferred to 30% sucrose and cut at 40 μm on a freezing microtome. In brief, endogenous peroxidase was quenched with 3% hydrogen peroxide, blocked with 8% normal serum, avidin (Vector Cat#SP-2001) and 0.1% Triton-X and incubated overnight at 4°C with biotin (Vectorlabs Cat#SP-2001), normal serum and primary antibodies specific for Asyn (Clone 4B12; BioLegend Cat# 807801, RRID: AB_2564730), pSer129 Asyn (Clone EP1536Y; Abcam Cat# ab51253, RRID: AB_869973), CD68 (Bio-Rad Cat# MCA341R, RRID: AB_2291300), MHCII (Bio-Rad Cat# MCA46GA, RRID: AB_567369), and CD163 (Bio-Rad Cat# MCA342A, RRID: AB_2074557). Tissue was incubated in appropriate biotinylated secondary antibodies (1:200), amplified with Vectastain ABC kit (Vectorlabs Cat#PK-6100) and developed with diaminobenzidine tablets or diaminobenzidine drop kit with nickel (Vector Cat#SK-4100) for CD68 immunostaining.
# Tissue was blocked with 5% normal serum in TBS + 0.25% Triton-X and further incubated overnight at 4°C with primary antibodies specific for IBA1 (FUJIFILM Wako Pure Chemical Corporation Cat# 019-19741, RRID: AB_839504) and tyrosine hydroxylase (ImmunoStar Cat# 22941, RRID: AB_572268) to identify microglia in the substantia nigra or tyrosine hydroxylase (Millipore Cat# AB152, RRID: AB_390204) and Asyn (Clone 4B12; BioLegend Cat# 807801, RRID: AB_2564730) to evaluate accuracy of stereotaxic injection targets. Tissue was incubated in secondary antibodies conjugated to appropriate fluorophores for 2 h at room temperature and mounted tissue with Vectashield, an aqueous mounting media with DAPI (Vectorlabs Cat#H-2000).
# IBA1-positive total immune cell counts and area of immunoreactivity (ir) were quantified using Nikon NIS elements software. Four fluorescent z-stacks of IBA1 stained nigra were collected from images of lesioned and non-lesioned nigra from targeted low cohort animals using a Nikon Eclipse 90i microscope and maximum project images were used for quantification. CD68-ir and CD163-ir was quantified from two to three microphotographs from each animal throughout the substantia nigra using ImageJ particle count analysis. Microphotographs of the nigra immunochemically stained for either Asyn, pSer129 Asyn and proteinase K-resistant Asyn were quantified using Image J (version 1.54f). Regions of Interest (ROIs) were drawn on two to three images throughout the nigra and optical density measurements collected and averaged for each animal. Measurements were normalized to the vehicle group so that data from all cohorts could be combined.
# [3] = Weekly body weights of AAV2/5-human WT Asyn rats; format: in vivo, rat; details: low and high cohorts, 6 mg/kg i.p. daily, over 8 weeks, vs vehicle
# Experimental: Sprague Dawley male rats (16–18 weeks of age, 400–525 g) were purchased from Charles River Laboratories and acclimated to Emory University animal facilities. Rats were pair housed in standard plexiglass cages under normal 12-hr light cycles and handled in accordance with protocols approved by the IACUC of Emory University in Atlanta, GA. Rats were administered unilateral injections of AAV2/5-human wild-type (WT) Asyn at titers of 2.9–4.3 × 10^11 vector genomes (vg)/mL (termed “low cohort”), which was previously shown to not induce nigral neurotoxicity. Thereby, generating a model with overexpression of human WT Asyn and Asyn-mediated neuroinflammation. One week after surgery, animals were randomly selected to receive daily systemic injections of either SMM-189 (intraperitoneal (i.p.), 6 mg/kg, n = 12) or vehicle (i.p., n = 12) and followed for 8 weeks (Figs. 1; n = 2 rats per group were removed due to poor nigral targeting). The dose of SMM-189 was based on a pharmacokinetic study in mice determining therapeutic brain-blood ratios as described below. […]
# An additional cohort of rats (termed “high cohort”) was evaluated to determine effects of SMM-189 on immune cell populations in the brain, resident or infiltrating, and the periphery as measured by flow cytometry (Fig. 1). […] Brains were collected at endpoints, and brain immune cells isolated and evaluated using multicolor flow cytometry. […]
compound,measurement,setting,value
O=C(c1ccccc1)c1cc(O)c(-c2cc(Cl)cc(Cl)c2)c(O)c1 [SMM-189],DCLN myeloid populations including classical CD43-His48+ or CD11b+ monocytes,[1],No frequency difference
same,Tregs (foxp3+CD4+) in DCLN,[1],significant reduction
same,CD4 to CD8 lymphocyte ratio in DCLN,[1]; p = 0.0503,trend was found in the CD4 to CD8 lymphocyte ratio to be decreased
same,CD11b+ myeloid splenocytes,[1]; p = 0.0541,trend to increase
same,CD4 to CD8 lymphocyte ratio in spleen,[1]; p = 0.0962,no effect; also recorded: trend was found in the CD4 to CD8 lymphocyte ratio to be decreased
same,"IBA1 counts and area in nigra, effect of treatment",[2],not a significant effect of treatment
same,intensity or area coverage of MHCII in the lesioned nigra,[2],No differences
same,nigral CD68-ir particle counts,[2]; AAV-injected nigra,increased
same,CD163 in the nigra,[2]; lesioned nigra,decreased
same,"Rats weight, difference between treatment groups",[3],no significant differences

# Reference: article PMC11438102, “Modulation of cannabinoid receptor 2 alters neuroinflammation and reduces formation of alpha-synuclein aggregates in a rat model of nigral synucleinopathy” (Journal of Neuroinflammation, 2024)
